Reference: patent publication US11911382B2, “Method for treating pulmonary arterial hypertension and associated pulmonary arterial hypertension” (Altavant Sciences GmbH, priority 2018, dated 2024)

Experiments:
[1] = system: PAH, monocrotaline prevention model; test: monocrotaline prevention model of PAH; format: in vivo; settings: rat, oral RVT-1201 100 mg/kg/day
[2] = system: established PAH, SUGEN-hypoxia treatment model; test: SUGEN-hypoxia treatment model for established PAH; format: in vivo; settings: rat, oral RVT-1201 100 mg/kg/day
serotonin biosynthesis = test: serotonin biomarkers in rat (serum serotonin, urinary 5-HIAA); format: in vivo; settings: 30 to 300 mg/kg/day, dose-dependent
Description: RVT-1201 (30 to 300 mg/kg/day) may yield a dose-dependent reduction in rat serum serotonin (−27% to −96%) and 24 h urinary output of 5-HIAA (−45% to −56%). HIAA is a metabolite that reflects total serotonin biosynthesis.

serotonin biomarkers = test: divided dose studies in rats; format: in vivo, rat
[3] = safety and tolerability in healthy human subjects; format: in vivo; settings: doses required to achieve clinically-relevant AUC
Description: (§1) Healthy human subjects (n=˜120) may receive RVT-1201.
(§2) Mean change in plasma 5-HIAA may be about −53% from Day 1 to Day 14, whereas placebo may be about +26%. Interpolation of KAR5417 AUC between 400 mg and 800 mg BID regimens may show 500-600 mg BID in humans will achieve the target exposure associated with efficacy in rat models.

[4] = pharmacokinetics in healthy human subjects; format: in vivo; settings: humans, interpolation of KAR5417 AUC between 400 mg and 800 mg BID regimens
Description: as §1, §2

5-HIAA = test: plasma 5-HIAA in healthy human subjects; format: in vivo; settings: 400 mg BID, Day 1 to Day 14
Description: as §2

TPH1 = biological target: T1, TPH1 (Mus musculus, UniProt P17532); settings: amorphous form; cited from earlier work
T1 construct: from tissue; host or cells: live mice (in vivo)
T1 sequence (P17532 1-447): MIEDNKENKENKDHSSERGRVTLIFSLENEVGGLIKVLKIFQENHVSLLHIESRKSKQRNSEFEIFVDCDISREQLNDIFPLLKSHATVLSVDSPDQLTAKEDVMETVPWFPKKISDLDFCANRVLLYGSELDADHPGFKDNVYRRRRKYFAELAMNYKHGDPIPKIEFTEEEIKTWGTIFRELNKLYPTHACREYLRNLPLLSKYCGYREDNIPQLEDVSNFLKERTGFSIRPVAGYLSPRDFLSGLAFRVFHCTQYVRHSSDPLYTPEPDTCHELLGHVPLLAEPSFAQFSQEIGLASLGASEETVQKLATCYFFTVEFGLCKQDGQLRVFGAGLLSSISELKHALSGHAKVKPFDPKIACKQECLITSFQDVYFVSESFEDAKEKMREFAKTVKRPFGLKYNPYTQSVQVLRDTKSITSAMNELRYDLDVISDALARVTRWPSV

[5] = stability of crystalline polymorphs; format: physicochemical; settings: particularly at temperatures of less than 95° C.
Excerpt: The above-referenced compound can be used to prevent or treat PAH/APAH in either an amorphous or crystalline form. Two different polymorph crystalline forms are identified by x-ray powder diffraction patterns set forth in FIG. 1 (Form 3) and FIG. 2 (Form 1) as well as Tables 1 and 2 (Form 3) and Tables 3 and 4 (Form 1).

Row | Compound | effect on PAH [1] | effect on PAH [2] | reduction in 24 h urinary output of 5-HIAA (serotonin biosynthesis) | reduction in rat serum serotonin (serotonin biosynthesis) | once daily administration versus BID or TID regimens (serotonin biomarkers) | serotonin reduction (serotonin biomarkers; 75 mg/kg/day, divided dose studies) [%] | tolerability [3] | BID dose achieving target exposure associated with efficacy in rat models [4] [mg] | mean change in plasma 5-HIAA (5-HIAA) | efficacy in inhibiting TPH1 in mice (TPH1) | stability and shelf life compared to crystalline Form 1 polymorph [5]
1 | CCOC(=O)[C@@H]1CC2(CCN(c3cc(O[C@H](c4ccc(Cl)cc4-c4ccccc4)C(F)(F)F)nc(N)n3)CC2)CN1 [RVT-1201, (S)-ethyl 8-(2-amino-6-((R)-1-(5-chloro-[1,1′-biphenyl]-2-yl)-2,2,2-trifluoroethoxy)pyrimidin-4-yl)-2,8-diazaspiro[4.5]decane-3-carboxylate] | block or ameliorate PAH | block or ameliorate PAH | −45% to −56% | −27% to −96% | comparable to BID or TID regimens | ~65 | well tolerated | 500 to 600 | about −53% | demonstrated | –
2 | CCOC(=O)[C@@H]1CC2(CCN(c3cc(O[C@H](c4ccc(Cl)cc4-c4ccccc4)C(F)(F)F)nc(N)n3)CC2)CN1 [crystalline Form 3, (S)-ethyl 8-(2-amino-6-((R)-1-(5-chloro-[1,1′-biphenyl]-2-yl)-2,2,2-trifluoroethoxy)pyrimidin-4-yl)-2,8-diazaspiro[4.5]decane-3-carboxylate] | – | – | – | – | – | – | – | – | – | – | substantially greater stability and shelf life
